Data as given in PubChem BioAssay (NCI).
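Briefly, cells in 96-well plates were exposed to five compound concentrations for 48 h, and endpoints were estimated by linear interpolation. Here, GI50 denotes the concentration required for 50% inhibition of growth. TGI denotes the concentration required for complete inhibition of growth.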

Assays:
Assay in all cases: inhibition of tumour cell growth, NCI panel, 48 h
A498 renal = tested on: A498 renal
HOP-62 NSCLC = tested on: HOP-62 NSCLC
RPMI-8226 leukemia = tested on: RPMI-8226 leukemia
SK-MEL-2 melanoma = tested on: SK-MEL-2 melanoma
SK-MEL-28 melanoma = tested on: SK-MEL-28 melanoma
U251 CNS = tested on: U251 CNS
HCT-15 colon = tested on: HCT-15 colon
SN12C renal = tested on: SN12C renal

| Structure (SMILES) | GI50 (A498 renal) | TGI (A498 renal) | GI50 (HOP-62 NSCLC) | TGI (HOP-62 NSCLC) | GI50 (RPMI-8226 leukemia) | TGI (RPMI-8226 leukemia) | GI50 (SK-MEL-2 melanoma) | TGI (SK-MEL-2 melanoma) | GI50 (SK-MEL-28 melanoma) | TGI (SK-MEL-28 melanoma) | GI50 (U251 CNS) | TGI (U251 CNS) | GI50 (HCT-15 colon) | TGI (HCT-15 colon) | GI50 (SN12C renal) | TGI (SN12C renal) |
| --- | --- | --- | --- | --- | --- | --- | --- | --- | --- | --- | --- | --- | --- | --- | --- | --- |
| Cl.Fc1c[c-]c(-c2ccccn2)c(F)c1.[Pt].c1ccc([PH+](CC[PH+](c2ccccc2)c2ccccc2)c2ccccc2)cc1 | 0.103 µM | 0.478 µM | 0.186 µM | 0.688 µM | 0.0341 µM | 0.249 µM | 0.233 µM | 0.756 µM | 0.167 µM | 1.4 µM | 0.0319 µM | 1.13 µM | – | – | – | – |
| Cc1cc(-c2nc3ccc(O)cc3s2)ccc1N | 41.3 µM | > 100 µM | 31.1 µM | > 100 µM | – | – | > 100 µM | > 100 µM | 64.9 µM | > 100 µM | 31.3 µM | > 100 µM | > 100 µM | > 100 µM | 39 µM | > 100 µM |
| COc1cc2c(OC)c(c1)CCCC1=CC(=O)C=C(CCC2)C1=O | – | > 100 µM | – | > 100 µM | – | 25.9 µM | – | – | – | > 100 µM | – | > 100 µM | – | 98.4 µM | – | > 31.6 µM |
| CCOC(=O)C#Cc1ccc(C#CC(=O)OCC)cc1 | – | > 51.5 µM | – | > 29.3 µM | – | > 25.3 µM | – | – | – | > 20.9 µM | – | – | – | > 20.2 µM | – | – |
| COc1cc(-c2cc(-c3nc4ccccc4[nH]3)[nH]n2)cc(OC)c1OC | 1.51 µM | 27.1 µM | 3.54 µM | 16.7 µM | 1.2 µM | 4.16 µM | – | – | 2.72 µM | 9.71 µM | 3.73 µM | 32.6 µM | 3.43 µM | 24.4 µM | 3.91 µM | 20.4 µM |
| Cc1cc(S(=O)(=O)NC#N)c(S/C(=N\Nc2ccc([N+](=O)[O-])cc2)c2ccccc2)cc1Cl | – | – | 17.2 µM | 32.3 µM | 19.5 µM | 61.8 µM | 13.8 µM | 34 µM | 17.2 µM | 37.4 µM | 14.9 µM | 28.1 µM | – | – | 20.9 µM | 52.3 µM |
| Cc1nn2c(/C=C3/C(=O)Nc4ccccc43)c(-c3ccc(Cl)cc3)nc2s1 | > 50 µM | > 50 µM | 22.4 µM | > 50 µM | 4.37 µM | > 50 µM | > 50 µM | > 50 µM | – | – | 9.73 µM | 18.7 µM | 15.3 µM | > 50 µM | – | – |
| COc1ccc(C(=O)/C=C/c2cc(C(=O)c3cc(OC)c(OC)c(OC)c3)ccc2OC)cc1 | 7.33 µM | > 100 µM | 11.8 µM | 94.5 µM | – | – | 6.04 µM | > 100 µM | – | – | 3.11 µM | > 100 µM | – | – | – | – |
| O=C(Nc1cc(Cl)ccc1O)c1cccc(NC2=C(Cl)C(=O)N(Cc3ccccc3)C2=O)c1 | 25.8 µM | > 100 µM | 26.7 µM | 67.3 µM | – | – | – | – | 42.4 µM | > 100 µM | 18.2 µM | 37.3 µM | 13.3 µM | 27.6 µM | 16 µM | 33.6 µM |
| CCOC(=O)[C@@H](C)C[C@H](Cc1ccccc1)NC(=O)c1csc([C@@H](C[C@H](C(C)C)N(C)C(=O)[C@H](CCC(C)C)NC(=O)[C@H]2CCCCN2C)OC(C)=O)n1 | 0.00419 µM | 0.0226 µM | 0.00932 µM | 5.68 µM | < 0.00333 µM | 3.83 µM | < 0.00333 µM | 6.65 µM | – | – | 0.00758 µM | 5.92 µM | 0.0138 µM | 4.19 µM | 0.0159 µM | 4.59 µM |
| c1cncc(C(Nc2cccc3cccnc23)Nc2cccc3cccnc23)c1 | – | – | – | > 100 µM | – | > 100 µM | – | > 100 µM | – | – | – | > 100 µM | – | > 100 µM | – | > 100 µM |
| Clc1cc(Cl)cc(N2N=C(c3cccc(Nc4ccncc4)c3)CC2c2ccc(Br)cc2)c1 (stereo not drawn) | 1.08 µM | 2.3 µM | – | – | – | – | – | – | 1.83 µM | 3.37 µM | – | – | 1.8 µM | 3.49 µM | 1.67 µM | 3.11 µM |
| Nc1ncc(-c2ccc(C(F)(F)F)cc2)c(NC2CCCCCC2)n1 | 13.4 µM | 79.3 µM | 54.7 µM | > 100 µM | 8.91 µM | 41.1 µM | – | – | 53.6 µM | > 100 µM | 20.8 µM | 88.9 µM | 38.8 µM | > 100 µM | 29.4 µM | > 100 µM |
| Cn1c2ccc([N+](=O)[O-])cc2c(=O)c2c(O)cc(O)cc21 | – | > 100 µM | – | – | – | > 100 µM | – | – | – | > 100 µM | – | 37.3 µM | – | > 100 µM | – | > 100 µM |
| O=C(c1cc(-c2cc3c(cc2C(=O)N2Cc4ccccc4C[C@H]2CN2CCOCC2)OCO3)n2c1CCCC2)N(c1ccccc1)c1ccc(O)cc1 | 2.71 µM | 15.3 µM | 64.4 µM | > 100 µM | – | – | 10.2 µM | 54.4 µM | 11.4 µM | > 100 µM | 6.99 µM | > 100 µM | 3.54 µM | > 100 µM | 8.6 µM | > 100 µM |
